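Five concentrations, 48 hours, 96-well plates. The concentration for full growth arrest is given as TGI.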

The first experiment deals with CCRF-CEM leukemia. The experiment in a line: DTP human tumour cell line panel, 48 h.
`COc1cccc2cc(C(=O)O)c(=O)oc12` yielded a TGI of over 100 µM.
Compound `Ic1cccc(/C=C/CN2CCN(CCOC(c3ccccc3)c3ccccc3)CC2)c1` gave a TGI of 32.4 µM.
Still for that read-out and setting: as for `CCN1CCC(O)(/C=C/c2ccc(C)cc2)C(C(=O)/C=C/c2ccc(C)cc2)C1` (centres undefined), the figure is 5.62 µM; as for `CCn1sc2ccccc2c1=O`, over 48.2 µM.

The test system of another experiment is HCT-116 colon. The experiment in a line: DTP human tumour cell line panel, 48 h.
In turn, `COc1cccc2cc(C(=O)O)c(=O)oc12` had a total growth inhibition concentration (TGI) of over 100 µM.
Turning to `Ic1cccc(/C=C/CN2CCN(CCOC(c3ccccc3)c3ccccc3)CC2)c1`, the TGI was found to be 26.8 µM.
For the compound `CCN1CCC(O)(/C=C/c2ccc(C)cc2)C(C(=O)/C=C/c2ccc(C)cc2)C1` (centres undefined), the TGI amounted to 4.63 µM.
As to `CCn1sc2ccccc2c1=O`, the TGI is 30.7 µM.

The next experiment concerns BT-549 breast. The experiment in a line: DTP human tumour cell line panel, 48 h.
In turn, `COc1cccc2cc(C(=O)O)c(=O)oc12` returned a TGI of over 100 µM.
`Ic1cccc(/C=C/CN2CCN(CCOC(c3ccccc3)c3ccccc3)CC2)c1` yielded a concentration for total growth inhibition (TGI) of 31.4 µM.
`CCN1CCC(O)(/C=C/c2ccc(C)cc2)C(C(=O)/C=C/c2ccc(C)cc2)C1` (centres undefined) gave a TGI of 13.7 µM.
For the compound `CCn1sc2ccccc2c1=O`, the TGI worked out at 25.7 µM.

In another experiment the test system is HCC-2998 colon. The experiment in a line: DTP human tumour cell line panel, 48 h.
For the compound `COc1cccc2cc(C(=O)O)c(=O)oc12`, the concentration for total growth inhibition (TGI) was over 100 µM.
Same read-out and setting: as for `Ic1cccc(/C=C/CN2CCN(CCOC(c3ccccc3)c3ccccc3)CC2)c1`, the figure is 20.4 µM.
Regarding `CCN1CCC(O)(/C=C/c2ccc(C)cc2)C(C(=O)/C=C/c2ccc(C)cc2)C1` (centres undefined), the concentration for total growth inhibition (TGI) turned out to be 5.08 µM.
The compound `CCn1sc2ccccc2c1=O` returned a TGI of 34 µM.

The next experiment deals with U251 CNS. The experiment can be described thus: DTP human tumour cell line panel, 48 h.
In the case of `COc1cccc2cc(C(=O)O)c(=O)oc12`, the TGI was over 100 µM.
As to `Ic1cccc(/C=C/CN2CCN(CCOC(c3ccccc3)c3ccccc3)CC2)c1`, the TGI was found to be 29.7 µM.
Same read-out and setting: for `CCN1CCC(O)(/C=C/c2ccc(C)cc2)C(C(=O)/C=C/c2ccc(C)cc2)C1` (centres undefined) the value was 9.24 µM; for `CCn1sc2ccccc2c1=O`, 16.1 µM.

In the next experiment the test system is SF-268 CNS. The experiment can be described thus: DTP human tumour cell line panel, 48 h.
`COc1cccc2cc(C(=O)O)c(=O)oc12` registered a TGI of over 100 µM.
For the compound `Ic1cccc(/C=C/CN2CCN(CCOC(c3ccccc3)c3ccccc3)CC2)c1`, the TGI was over 100 µM.
Same read-out and setting: for `CCN1CCC(O)(/C=C/c2ccc(C)cc2)C(C(=O)/C=C/c2ccc(C)cc2)C1` (centres undefined) the value was 24.6 µM; for `CCn1sc2ccccc2c1=O`, 34.6 µM.

Another experiment concerns OVCAR-5 ovarian. The experiment can be described thus: DTP human tumour cell line panel, 48 h.
`COc1cccc2cc(C(=O)O)c(=O)oc12` gave a TGI of over 100 µM.
On the same count and under the same terms, as for `Ic1cccc(/C=C/CN2CCN(CCOC(c3ccccc3)c3ccccc3)CC2)c1`, the figure is 36.9 µM.
The same measure, in the same setting: for `CCN1CCC(O)(/C=C/c2ccc(C)cc2)C(C(=O)/C=C/c2ccc(C)cc2)C1` (centres undefined) the value was 23.2 µM; for `CCn1sc2ccccc2c1=O`, over 27.5 µM.

Another experiment has as its system SK-MEL-5 melanoma. The experiment in a line: DTP human tumour cell line panel, 48 h.
Consider `COc1cccc2cc(C(=O)O)c(=O)oc12`, for which the TGI was over 100 µM.
`Ic1cccc(/C=C/CN2CCN(CCOC(c3ccccc3)c3ccccc3)CC2)c1` displayed a concentration for total growth inhibition (TGI) of 32.2 µM.
`CCN1CCC(O)(/C=C/c2ccc(C)cc2)C(C(=O)/C=C/c2ccc(C)cc2)C1` (centres undefined) gave a concentration for total growth inhibition (TGI) of 9.85 µM.
Turning to `CCn1sc2ccccc2c1=O`, the total growth inhibition concentration (TGI) worked out at 25 µM.

The next experiment relates to OVCAR-8 ovarian. The experiment can be described thus: DTP human tumour cell line panel, 48 h.
`COc1cccc2cc(C(=O)O)c(=O)oc12`: the TGI is over 100 µM.
Same read-out and setting: for `Ic1cccc(/C=C/CN2CCN(CCOC(c3ccccc3)c3ccccc3)CC2)c1` the value was 30 µM.
As for `CCN1CCC(O)(/C=C/c2ccc(C)cc2)C(C(=O)/C=C/c2ccc(C)cc2)C1` (centres undefined), the TGI turned out to be 7.54 µM.
On to `CCn1sc2ccccc2c1=O`, for which the TGI was 35.8 µM.

In another experiment the test system is T-47D breast. The experiment in a line: DTP human tumour cell line panel, 48 h.
As for `COc1cccc2cc(C(=O)O)c(=O)oc12`, the TGI was over 100 µM.
In turn, `Ic1cccc(/C=C/CN2CCN(CCOC(c3ccccc3)c3ccccc3)CC2)c1` had a TGI of 33.3 µM.
On the same count and under the same terms, as for `CCN1CCC(O)(/C=C/c2ccc(C)cc2)C(C(=O)/C=C/c2ccc(C)cc2)C1` (centres undefined), the figure is 9.89 µM; as for `CCn1sc2ccccc2c1=O`, 35.2 µM.

For another experiment, the system named is MALME-3M melanoma. The experiment can be described thus: DTP human tumour cell line panel, 48 h.
For the compound `COc1cccc2cc(C(=O)O)c(=O)oc12`, the TGI was over 100 µM.
The compound `Ic1cccc(/C=C/CN2CCN(CCOC(c3ccccc3)c3ccccc3)CC2)c1` yielded a TGI of 39.3 µM.
Compound `CCN1CCC(O)(/C=C/c2ccc(C)cc2)C(C(=O)/C=C/c2ccc(C)cc2)C1` (centres undefined) came in with a TGI of 14.8 µM.
On to `CCn1sc2ccccc2c1=O`, for which the TGI was 39.6 µM.

The next experiment relates to PC-3 prostate. The experiment can be described thus: DTP human tumour cell line panel, 48 h.
`COc1cccc2cc(C(=O)O)c(=O)oc12`: the TGI is over 100 µM.
For the compound `Ic1cccc(/C=C/CN2CCN(CCOC(c3ccccc3)c3ccccc3)CC2)c1`, the TGI was found to be 66.3 µM.
Still for that read-out and setting: as for `CCN1CCC(O)(/C=C/c2ccc(C)cc2)C(C(=O)/C=C/c2ccc(C)cc2)C1` (centres undefined), the figure is 18.1 µM; as for `CCn1sc2ccccc2c1=O`, 29.3 µM.

The subject of the next experiment is EKVX NSCLC. The experiment in a line: DTP human tumour cell line panel, 48 h.
`COc1cccc2cc(C(=O)O)c(=O)oc12` displayed a TGI of over 100 µM.
The compound `Ic1cccc(/C=C/CN2CCN(CCOC(c3ccccc3)c3ccccc3)CC2)c1` displayed a total growth inhibition concentration (TGI) of 41.4 µM.
Compound `CCN1CCC(O)(/C=C/c2ccc(C)cc2)C(C(=O)/C=C/c2ccc(C)cc2)C1` (centres undefined) registered a TGI of 26.3 µM.
`CCn1sc2ccccc2c1=O` gave a TGI of 38.2 µM.

In another experiment the test system is SK-OV-3 ovarian. The experiment in a line: DTP human tumour cell line panel, 48 h.
As to `Ic1cccc(/C=C/CN2CCN(CCOC(c3ccccc3)c3ccccc3)CC2)c1`, the TGI was determined as 63.4 µM.
On the same count and under the same terms, as for `CCN1CCC(O)(/C=C/c2ccc(C)cc2)C(C(=O)/C=C/c2ccc(C)cc2)C1` (centres undefined), the figure is 29.1 µM.
In turn, `CCn1sc2ccccc2c1=O` returned a TGI of over 54.9 µM.

Another experiment deals with SW-620 colon. The experiment in a line: DTP human tumour cell line panel, 48 h.
`COc1cccc2cc(C(=O)O)c(=O)oc12` yielded a total growth inhibition concentration (TGI) of over 100 µM.
In the case of `Ic1cccc(/C=C/CN2CCN(CCOC(c3ccccc3)c3ccccc3)CC2)c1`, the TGI is over 100 µM.
The same measure, in the same setting: as for `CCN1CCC(O)(/C=C/c2ccc(C)cc2)C(C(=O)/C=C/c2ccc(C)cc2)C1` (centres undefined), the figure is 3.36 µM.
`CCn1sc2ccccc2c1=O` showed a TGI of over 58.4 µM.

These data come from PubChem BioAssay (NCI).
